Where two headings read alike, the source gives them in different places.
Legend:
[1] = Initial cytotoxicity testing (MTT test), HEK293; type: cell-based, human; details: human healthy cells, MTT, 72 h, two concentrations 50–100 µM
Method: (§1) Colon cancer (HCT116, HT29), breast cancer (MCF7, SKBR3), melanoma (SK-MEL28), lung cancer (A549), prostate cancer (DU145), human normal cells (VA-13 and HEK293), and murine mammary cell lines (EMT6) were purchased from ATCC (Manassas, VA, USA). Cells were routinely grown in RPMI 1640 culture medium, supplemented with 10% fetal bovine serum, glutamine, and 100 U/mL penicillin. HCT116, HT29, MCF7, SKBR3, SK-MEL28, A549, DU145, VA-13, HEK293, and EMT6 cells were grown in flasks in RPMI 1640 fresh culture medium with supplements at 37 °C and 5% CO2. Cells were grown as monolayer cultures, and the cells in the exponential growth phase were trypsinized and suspended in the supplemented RPMI 1640 medium.
(§2) To evaluate the cytotoxicity of the compounds, we placed cells in (20–30) × 10^3 cells/mL concentrations in 96-well culture plates for 24 h. Cells were counted after treatment with Trypan blue solution (0.4%). They were then exposed to two different concentrations of compounds 16–30 (50–100 µM) dilutions in pre-incubated cells at 37 °C for 72 h. In control wells with untreated cells, only (DMSO + PBS) was added. Cell viability was measured by the standard MTT test. The stock solutions of each compound were prepared in DMSO following by preparation of serial dilutions in PBS.
(§3) The absorbance was measured at 540 nm using a Multiskan™ FC microplate photometer and the Skanlt software 6.1 RE for microplate reader, both from Thermo Scientific (Waltham, MA, USA). Experiments were carried out in triplicate; to perform the statistical analysis, more concentrations should be evaluated.

HEK293 = experiment: Initial cytotoxicity testing (MTT test), HEK293; type: cell-based, human; details: Homo sapiens, HEK293; normal cells, initial testing
Method: as §1, §2, §3

DU145 = experiment: Initial cytotoxicity testing (MTT test), DU145; type: cell-based, human; details: Homo sapiens, DU-145, 72 h, read-out: cytotoxicity DU145
Method: as §1, §2, §3

VA-13 = experiment: Initial cytotoxicity testing (MTT test), VA-13; type: cell-based, human; details: Homo sapiens, VA-13; normal cells, initial testing
Method: as §1, §2, §3

[2] = Initial cytotoxicity testing (MTT test), VA-13; type: cell-based, human; details: human healthy cells, MTT, 72 h, two concentrations 50–100 µM
Method: as §1, §2, §3

A549 = experiment: Initial cytotoxicity testing (MTT test), A549; type: cell-based, human; details: Homo sapiens, A549, 72 h, read-out: cytotoxicity A549
Method: as §1, §2, §3

[3] = tested on: influenza virus A/Puerto Rico/8/34 (H1N1); experiment: Antiviral (cytoprotective) activity in MDCK cells, MTT; type: cell-based
in vitro = details: dog
MDCK cells = experiment: Cytotoxicity in MDCK cells (MTT, CC50); details: uninfected MDCK cells, 48 h
[4] = tested on: DU145, A549, VA-13, HEK293, EMT6; experiment: Initial cytotoxicity testing (MTT test), all cell lines together; type: cell-based; details: after 72 h, read-out: IC50 on all cells
Method: as §1, §2, §3

[5] = H1N1, infected MDCK cells, m.o.i. 0.01, 48 h, 50% cell protection, read-out: IC50

Structure (SMILES) | IC50 at 72 h [1] | IC50 (HEK293) | IC50 (DU145) | IC50 (VA-13) | IC50 at 72 h [2] | IC50 (A549) | IC50 [3, 5] | CC50 at 48 h (in vitro) | CC50 (MDCK cells) | IC50 [4] | IC50 ([3]; H1N1, MDCK, 48 h)
C=C1CC[C@H]2C(c3cc(Br)ccc3O)=NO[C@]2(C)CC[C@@H]2[C@@H]1CC2(C)C [Compound 18b, 4-bromo-2-((3aS,6aS,8aR,10aR)-8,8,10a-trimethyl-6-methylene-3a,5,6,6a,7,8,8a,9,10,10a-decahydro-4H-cyclobuta [5,6]cyclonona [1,2-d]isoxazol-3-yl)phenol] | 50 to 100 µM | 50 to 100 µM | > 50 µM | 50 to 100 µM | 50 to 100 µM | > 50 µM | – | – | – | – | –
CC1(C)C[C@H]2[C@H]1CC[C@]1(C)[C@@H](CC[C@@]23CC(c2ccccc2)=NN3c2ccccc2)C(c2ccccc2)=NN1c1ccccc1 [Compound 29, (3aR,6R,6aS,8aR,10aR)-8,8,10a-trimethyl-1,2′,3,5′-tetraphenyl-2′,3a,4,4′,5,6a,7,8,8a,9,10,10a-Dodecahydro-1H-spiro[cyclobuta [6,7]cyclonona [1,2-c]pyrazole-6,3′-pyrazole]] | > 50 µM | – | > 50 µM | – | > 50 µM | > 50 µM | 102 ± 12.6 µM | > 506 µM | – | – | –
C=C1CC[C@@H]2C(C)=NN(c3ccccc3)[C@@]2(C)CC[C@@H]2[C@@H]1CC2(C)C [Compound 21b, (3aS,6aS,8aR,10aS)-3,8,8,10a-tetramethyl-6-methylene-1-phenyl-1,3a,4,5,6,6a,7,8,8a,9,10,10a-dodecahydrocyclobuta [6,7]cyclonona [1,2-c]pyrazole] | > 50 µM | – | > 50 µM | – | > 50 µM | > 50 µM | > 297 µM | 375 ± 15.6 µM | – | – | –
C=C1CC[C@@H]2C(c3ccc(Cl)cc3)=NO[C@@]2(C)CC[C@@H]2[C@@H]1CC2(C)C [Compound 16b, (3aR,6aS,8aR,10aS)-3-(4-chlorophenyl)-8,8,10a-trimethyl-6-methylene-3a,5,6,6a,7,8,8a,9,10,10a-decahydro-4H-cyclobuta [5,6]cyclonona [1,2-d]isoxazole] | > 50 µM | – | > 50 µM | – | > 50 µM | > 50 µM | 16.8 ± 2.2 µM | 20.2 ± 1.9 µM | – | – | –
CC(N)C1C[C@@H]2CC[C@H]1C2 (stereo partly shown) [Deitiforin, reference compound] | – | – | – | – | – | – | – | – | 1270 ± 82 µM | – | –
C=C1CC[C@H]2C(c3c(OC)cccc3OC)=NN(c3c(Cl)cc(Cl)cc3Cl)[C@]2(C)CC[C@@H]2[C@@H]1CC2(C)C [Compound 23b, (3aR,6aS,8aR,10aR)-3-(2,6-dimethoxyphenyl)-8,8,10a-trimethyl-6-methylene-1-(2,4,6-trichlorophenyl)-1,3a,4,5,6,6a,7,8,8a,9,10,10a-dodecahydrocyclobuta [6,7]cyclonona [1,2-c]pyrazole] | > 50 µM | – | > 50 µM | – | > 50 µM | > 50 µM | 178 ± 20.1 µM | > 535 µM | – | – | –
CC1(C)C[C@H]2[C@H]1CC[C@@]1(C)ON=C(Br)[C@@H]1CC[C@@]21CC(Br)=NO1 [Compound 28, (3aR,6R,6aS,8aR,10aR)-3,3′-Dibromo-8,8,10a-trimethyl-3a,4,5,6a,7,8,8a,9,10,10a-decahydro-4′H-spiro[cyclobuta [5,6]cyclonona [1,2-d]isoxazole-6,5′-isoxazole]] | 50 to 100 µM | 50 to 100 µM | > 50 µM | 50 to 100 µM | 50 to 100 µM | > 50 µM | > 8.7 µM | 13.8 ± 1.2 µM | – | – | –
COc1ccc(C2=NO[C@]3(CC[C@@H]4C(c5ccc(OC)cc5)=NO[C@@]4(C)CC[C@@H]4[C@@H]3CC4(C)C)C2)cc1 [Compound 26, (3aR,6R,6aS,8aR,10aS)-3,3′-Bis(4-methoxyphenyl)-8,8,10a-trimethyl-3a,4,5,6a,7,8,8a,9,10,10a-decahydro-4′H-spiro[cyclobuta [5,6]cyclonona [1,2-d]isoxazole-6,5′-isoxazole]] | > 50 µM | – | > 50 µM | – | > 50 µM | > 50 µM | > 652 µM | > 652 µM | – | – | –
CC1=CCCC2(CC(c3cc(Br)ccc3O)=NO2)C2CC(C)(C)C2CC1 [Compound 18a, 4-Bromo-2-((1S,2R,9R,E)-6,10,10-trimethyl-4′H-spiro[bicyclo [7.2.0]undecane-2,5′-isoxazol]-5-en-3′-yl)phenol] | > 50 µM | – | > 50 µM | – | > 50 µM | > 50 µM | 4.78 ± 0.6 µM | 25.1 ± 1.8 µM | – | – | –
C/C1=C\CC[C@@]2(CC(Br)=NO2)[C@H]2CC(C)(C)[C@@H]2CC1 [Compound 19a, (1S,2R,9R,E)-3′-Bromo-6,10,10-trimethyl-4′H-spiro[bicyclo [7.2.0]undecane-2,5′-isoxazol]-5-ene] | > 50 µM | – | > 50 µM | – | > 50 µM | > 50 µM | > 12.3 µM | 19.6 ± 1.1 µM | – | – | –
COc1cccc(OC)c1C1=NN(c2c(Cl)cc(Cl)cc2Cl)[C@]2(CC[C@H]3C(c4c(OC)cccc4OC)=NN(c4c(Cl)cc(Cl)cc4Cl)[C@]3(C)CC[C@@H]3[C@@H]2CC3(C)C)C1 [Compound 30, (3aR,6R,6aS,8aR,10aR)-3,5′-Bis(2,6-dimethoxyphenyl)-8,8,10a-trimethyl-1,2′-bis(2,4,6-trichlorophenyl)-2′,3a,4,4′,5,6a,7,8,8a,9,10,10a-dodecahydro-1H-spiro[cyclobuta [6,7]cyclonona [1,2-c]pyrazole-6,3′-pyrazole]] | > 50 µM | – | > 50 µM | – | > 50 µM | > 50 µM | 71 ± 8.8 µM | > 330 µM | – | – | –
NC(=O)c1ncn([C@@H]2O[C@H](CO)[C@@H](O)[C@H]2O)n1 [Ribavirin, reference compound] | – | – | – | – | – | – | 25 µM | – | > 2000 µM | – | –
C=C1CC[C@@H]2C(c3ccc(OC)cc3)=NO[C@@]2(C)CC[C@@H]2[C@@H]1CC2(C)C [Compound 17b, (3aR,6aS,8aR,10aS)-3-(4-methoxyphenyl)-8,8,10a-trimethyl-6-methylene-3a,5,6,6a,7,8,8a,9,10,10a-decahydro-4H-cyclobuta [5,6]cyclonona [1,2-d]isoxazole] | < 50 µM | – | < 50 µM | – | < 50 µM | < 50 µM | > 12.8 µM | 27 ± 2.4 µM | – | < 50 µM | –
C=C1CC[C@H]2C(Br)=NO[C@]2(C)CC[C@@H]2[C@@H]1CC2(C)C [Compound 19b, (3aR,6aS,8aR,10aR)-3-bromo-8,8,10a-trimethyl-6-methylene-3a,5,6,6a,7,8,8a,9,10,10a-decahydro-4H-cyclobuta [5,6]cyclonona [1,2-d]isoxazole] | – | – | – | – | – | – | > 33.7 µM | 44.2 ± 3.6 µM | – | – | –
C/C1=C\CC[C@@]2(CC(c3ccc(Cl)cc3)=NO2)[C@H]2CC(C)(C)[C@@H]2CC1 [Compound 16a, (1S,2R,9R,E)-3′-(4-Chlorophenyl)-6,10,10-trimethyl-4′H-spiro[bicyclo [7.2.0]undecane-2,5′-isoxazol]-5-ene] | > 50 µM | – | > 50 µM | – | > 50 µM | > 50 µM | 9.8 ± 1.3 µM | 125 ± 6.5 µM | – | – | –
C/C1=C\CC[C@@]2(CC(c3ccccc3)=NN2c2ccccc2)[C@H]2CC(C)(C)[C@@H]2CC1 [Compound 22a, (1S,2R,9R,E)-6,10,10-Trimethyl-2′,5′-diphenyl-2′,4′-dihydrospiro[bicyclo [7.2.0]undecane-2,3′-pyrazol]-5-ene] | 50 to 100 µM | 50 to 100 µM | > 50 µM | 50 to 100 µM | 50 to 100 µM | > 50 µM | 72.7 ± 9.2 µM | 170 ± 12.1 µM | – | – | –
NC12CC3CC(CC(C3)C1)C2 [Amantadine, reference compound] | – | – | – | – | – | – | 64 ± 5 µM | – | 284 ± 21 µM | – | –
CC(N)C12CC3CC(CC(C3)C1)C2 (stereo not shown) [Rimantadine, reference compound] | – | – | – | – | – | – | – | – | 335 ± 27 µM | – | 67 ± 4.9 µM
C=C1CC[C@H]2C(c3ccccc3)=NN(c3ccccc3)[C@]2(C)CC[C@@H]2[C@@H]1CC2(C)C [Compound 22b, (3aR,6aS,8aR,10aR)-8,8,10a-trimethyl-6-methylene-1,3-diphenyl-1,3a,4,5,6,6a,7,8,8a,9,10,10a-dodecahydrocyclobuta [6,7]cyclonona [1,2-c]pyrazole] | < 50 µM | 50 to 100 µM | > 50 µM | 50 to 100 µM | < 50 µM | > 50 µM | > 9.28 µM | 25.1 ± 1.6 µM | – | – | –
